We go through 10 molecules from patent US4818754A, “Certain anti-inflammatory pyrazolo [4,3-b] pyridine 7-amines” (Beecham Group p.l.c. of Beecham House, priority 1986, dated 1989).

Each structure is given as a SMILES string.

The subject of assay [1] is swelling induced by cantharidin. Kind of assay: Mouse cantharidin test (topical anti-inflammatory activity, mouse ear swelling). The assay is classed as in vivo. Conditions: 24 hours, CDl male mice, **p < 0.01, ***p < 0.001; for inhibition in vivo at 200 µg/ear: dose 200 μg/ear; for inhibition in vivo at 500 µg/ear: dose 500 μg/ear. On the procedure:
Compounds were tested for topical anti-inflammatory activity in a cantharidin mouse ear screen, modified from Swingle, Reiter and Schwartzmiller [Arch. int. Pharmacodyn. 254, 168-176, 1981].
25 μg cantharidin (in 10 μl tetrahydrofuran:methanol, 1:1 v/v) is applied to both ears of CDl male mice, 25 g bodyweight. 8 animals are used per experimental group. Compounds are included in the irritant solution applied to the left ear only. Negative control animals receive no treatment except 10 μl solvent on each ear. After 24 hours, the animals are killed and the ears are removed by cutting along the hairline and then weighed. The swelling induced by cantharidin is assessed as the increase in the weight of the right ears over that of the right ears of solvent-treated control animals, as a proportion of the weight of solvent-treated right ears. The swelling induced in the same animals in the presence of test compound is similarly the increase in the weight of the left ears over that of the left ears of the solvent-treated control animals, expressed as a proportion of the weight of solvent-treated left ears.
thus, % inhibition=([means wt.left experimental ears-mean wt.left 100-control ears]/[mean wt.left control ears])×100 ([mean wt.right experimental ears-mean wt.right control ears]/[mean wt.right control ears])
(§1) This method reduces the contribution of inter-animal variations in responsiveness to the inflammatory stimulus, and also compensates for any consistent bias in cutting off left and right ears. The significance of the inhibition is calculated using a paired `t` test of the two values of proportional weight increases.

The subject of assay [2] is swelling induced by oxazolone. The assay is described as follows: Mouse oxazolone test (topical anti-inflammatory activity in mice sensitised to oxazolone, ear swelling). Particulars: dose 200 μg/ear, 1 hour before challenge, 24 hours after, CDl male mice, *p < 0.1, **p < 0.01, ***p < 0.001. It is filed as in vivo. On the procedure:
Compounds were tested for topical anti-inflammatory activity in a model system using the mouse sensitised to oxazolone, by a method modified from that of Dietrich and Hess [Int. Arch. Allergy, 38, 246 (1970)].
Mice are sensitised with oxazolone (2 mg in 20 μl acetone) on a shaved area of the abdomen. CDl male mice of around 25 g bodyweight (8 animals per group) are used. 5 days later, the animals receive 10 μl tetrahydrofuran:methanol (1:1 v/v) on the right ear and the test compound in 10 μl of the same solvent on the left ear. 1 hour later, the animals are challenged with 100 μg oxazolone in 10 μl acetone on each ear. Negative control animals receive no treatment except 10 μl tetrahydrofuran:methanol at the initial time point. After 24 hours, the animals are killed and the ears are removed by cutting along the hairline and then weighed. The swelling induced by oxazolone is assessed as the increase in the weight of the right ears over that of the right ears of solvent-treated control animals, as a proportion of the weight of solvent-treated right ears. The swelling induced in the same animals in the presence of test compound is similarly the increase in the weight of the left ears over that of the left ears of the solvent-treated control animals, expressed as a proportion of the weight of solvent-treated left ears.
thus, % inhibition=([mean wt.left experimental ears-mean wt.left 100-control ears]/[mean wt.left control ears])×100 ([mean wt.right experimental ears-mean wt.right control ears]/[mean wt.right control ears])
as §1

In general, inhibition in vivo refers to the share of the control response that was lost under treatment. Lower therefore signals a weak effect. By % Inhibition is commonly meant the relative decrease from the control value, in per cent.

`CCCCC(=O)OCCCNc1cc(C)nc2cn[nH]c12` [Example 4, 7-[3-Pentanoyloxypropylamino]-5-methyl-1H-pyrazolo[4,3-b]pyridine]: in assay [1], the inhibition in vivo at 200 µg/ear was found to be 69.9%.

With `CCCCC(=O)OCCNc1cc(C)nc2cn[nH]c12` [Example 9, 7-(2-Pentanoyloxyethylamino)-5-methyl-1H-pyrazolo[4,3-b]pyridine], the inhibition in vivo at 200 µg/ear in assay [1] worked out at 69%.

Molecule `CCC(=O)OCCNc1cc(C)nc2cn[nH]c12` [Example 10, 7-[2-Propionyloxyethylamino]-5-methyl-1H-pyrazolo[4,3-b]pyridine] came in with an inhibition in vivo at 200 µg/ear in assay [1] of 55%.

As to `CCOC(=O)CCCNc1ccnc2cn[nH]c12` [Example 2, Ethyl 4-(7-(1H-Pyrazolo[4,3-b]pyridyl)amino)butanoate], the “% Inhibition” value in assay [2] was 48.6%. The molecule also came in with an inhibition in vivo at 500 µg/ear in assay [1] of 94.6%.

As to `Cc1cc(NCCOC(=O)c2ccccc2)c2[nH]ncc2n1` [Example 7, 7-[2-Benzoyloxyethylamino]-5-methyl-1H-pyrazolo[4,3-b]pyridine], the “% Inhibition” value in assay [2] is on record as 30%. Also, the inhibition in vivo at 500 µg/ear in assay [1] was 99.6%.

On to `CC(=O)OCCCNc1cc(C)nc2cn[nH]c12` [Example 6, 7-[3-Acetoxypropylamino]-5-methyl-1H-pyrazolo[4,3-b]-pyridine], for which, in assay [2], the “% Inhibition” value is recorded as 53%. For the same molecule, the inhibition in vivo at 200 µg/ear in assay [1] is 70%.

As to `Cc1cc(NCCCN2CCCC2=O)c2[nH]ncc2n1` [Example 3, 5-Methyl-7-(3-(1-(2-oxopyrrolidinyl))propylamino)-1H-pyrazolo[4,3-b]pyridine], the “% Inhibition” value in assay [2] is listed as 44.1%. This molecule gave an inhibition in vivo at 200 µg/ear in assay [1] of 75.3%.

Take `Cc1cc(NCCN2CCOCC2)c2[nH]ncc2n1` [Example 5, 7-[2-(N-Morpholino)ethylamino]-5-methyl-1H-pyrazolo [4,3-b]pyridine dihydrate]: in assay [2], the “% Inhibition” value is reported as 61.6%. Also, the inhibition in vivo at 200 µg/ear in assay [1] came out at 97.6%.

As to `CC(C)CCOC(=O)CCCNc1ccnc2cn[nH]c12` [Example 12, Isoamyl (7-(1H-pyrazolo[4,3-b]pyridyl)amino)butanoate], the inhibition in vivo at 200 µg/ear in assay [1] amounted to 78%.

The molecule `O=C(CCCNc1ccnc2cn[nH]c12)NCc1ccccc1` [Example 8, (7-(1H-Pyrazolo[4,3,-b]pyridyl)amino)butanoic acid benzylamide] registered an inhibition in vivo at 500 µg/ear in assay [1] of 95%.
